# From patent US20120022000A1, “USE OF A PEPTIDE IN THE TREATMENT OR PREVENTION OF METASTASIS” (UNIVERSITE DE LAUSANNE, priority 2009, published 2012)
# Marks after values point to notes of the source that are not given here.
# Columns and labels:
# U2OS cells [1] = test: Immuno-cytochemistry of actin and focal adhesions (phospho-FAK); assay type: cell-based; conditions: 13 μM over-night (FIG. 6)
# Description: FIG. 6: Actin and focal adhesion changes in TAT-RasGAP317-326-treated cells. 100,000 U2OS cells were cultured on coverslips for 24 hours and then treated with 13 μM TAT-RasGAP317-326, 13 μM TAT or left untreated (control) over-night. The cells were then fixed with 2% PFA, and peinieabilized with PBS Triton-X100 0.2%. The nuclei were stained with Hoechst 33342 and actin with Alexa Fluor 488 phalloidin. Focal adhesions were stained with an anti-phospho Tyr397 FAK. Representative images are shown.
# 100,000 U2OS cells were grown on coverslips overnight, and then treated as described in the figures. The cells were then fixed and the nuclei were stained in PBS containing 2% paraformaldehyde (weight/vol) (Acros Organics, catalog no: 30525-89-4) and 10 μg/ml Hoechst 33342 (Molecular Probe) for 15 minutes. The following steps were performed at room temperature in the absence of light. The cells were washed twice in PBS, permeabilized 10 minutes in PBS, 0.2% Triton X-100, washed twice in PBS, neutralized 15 minutes in DMEM, 10% FBS, and washed twice in PBS. The coverslips were then incubated 20 minutes in PBS 1.65 μM Alexa Fluor 488 phalloidin (Invitrogen, A12379). After a rapid wash in PBS, they were incubated with a polyclonal rabbit anti-phospho-FAK (tyrosine 397) primary antibody (1:50 dilution in DMEM, 10% FBS; Cell Signaling, catalog no: 3283) for 1 hour. After a rapid wash in PBS, the coverslips were incubated 1 hour with a donkey CyTM-anti-rabbit secondary antibody (1:500 dilution in DMEM, 10% FBS; Jackson ImmunoResearch, no. 711-165-152). The slides were finally washed twice in PBS and mounted in Vectashield mounting medium (Vector laboratories Inc.). Images were taken with a Zeiss Axioplan 2 imaging microscope.
# [2] = peptide by itself; Michod et al., 2004; 2009; cited from earlier work
# 4T1-luc2 cells = test: In vivo metastases model (orthotopic mammary fatpad 4T1-luc2 tumor); set-up: species or system nude mice
# Description: 100,000 4T1-luc2 cells were injected orthotopically into the mammary fatpad of nude mice. Four groups of eight nude mice were then treated with or without 0.16 mg TAT-RasGAP317-326 per kg of mouse on the first, third and fifth day of the week during 28 days. The tumor volumes were measured with a caliper at the indicated time points and were calculated according to the formula described in the “MATERIAL AND METHODS” section. A repeated measure ANOVA was performed and no differences were found between the two groups.
# Nude mice were injected into the mammary fatpads with 100,000 murine mammary cancer 4T1-luc2 cells that constitutively express the firefly luciferase. For the injection, the mouse skin was incised in the pelvic area to reach the fatpads, and the wounds were closed after injection with surgery hooks. The cells were injected in 100 μl Matrigel (BD Biosciences, 20% in PBS). Tumor volumes were quantified as follow: The tumor width and length were measured with a caliper and the tumor volume was calculated according to the formula tumor volume [mm3]=(12*L)*π/6, where 1 is the smallest measure between the width and the length (in mm), and L the longest (in mm) In order to quantify metastases, the mice were injected i.p. with 200 μl D-Luciferin Firefly (15 mg/ml in PBS) in PBS, Biosynth, No. L-8220) and luminescence was measured 10 minutes afterwards with an IVIS Lumina 2 apparatus (Xenogen). Metastases were assessed at the indicated time points in vivo and at the last day (28 days after tumor injection) ex vivo for the following organs: lung, liver and axillary and brachial lymph nodes. For the ex vivo measurements, the mice were injected with luciferin as described above, and sacrificed 10 minutes later to excise organs. The light emitted by the organs was measured in a Luciferin bath (150 μg/ml D-Luciferin Firefly in 2 ml PBS per organ). Luminescence is presented as the number of photons emitted per second (p/s).
# 28 days after cancer cells injection, the same mice than those in FIG. 5 were subjected to ex vivo metastases luminescence measurements. The lung, liver, axillary and brachial lymph node (LN) metastases were quantified by luminescence after luciferine i.p. injection. Organs emitting light were considered as bearing metastases. The asterisk denotes a significant difference against the control treatment (0 mg/kg TAT-RasGAP317-326) (p=0.0238 after an Fisher's Exact Test).
# trypsin = biological target: T1, trypsin (Sus scrofa, UniProt P00761); test: Trypsin pre-incubated with peptide, cell detachment; conditions: trypsin pre-incubated one hour with peptide; data not shown
# T1 construct: purchased Sigma T3924
# Source text: TAT-RasGAP317-326 could increase adherence and block migration by acting in the cellular environment or at the surface of cells. Alternatively, these effects could be induced only once the peptide has entered cells. The following evidence favors the second possibility.
# U2OS cells [3] = test: Adhesion assay (trypsinization assay) with peptides; assay type: cell-based; conditions: for cell adherence (resistance to trypsin): U2OS cells, 8 hours (FIG. 4A)
# Description: (a) U2OS cells were cultured until confluency and treated during 0 h, 1 h, 3 h, 8 h and 14 h with 13 μM TAT, 13 μM TAT-RasGAP317-326 or without treatment. The cells were then trypsinized during 5 minutes (or not trypsinized), washed with PBS and stained with GIEMSA. Four pictures were taken per plate using a Zeiss Axioplan 2 microscope equipped with a 10× objective and the number of cells per surface area was determined. Representative images are shown. The graph represents the number of cells per mm^2 (mean±95% CI of 3 independent experiments). Scale bar=100 μm. (b) Trypsinization assay on cancerous cell lines (U2OS, HeLa, 4T1, HCT116, SAOS) and non-cancerous cell lines (HEK293T and HaCaT). Cells were treated and analyzed as in panel (a). Values for control and TAT treatments are shown literally as they were too low to be seen on the graphs. (c) Reversibility of the TAT-RasGAP317-326 induced adhesion. Confluent U2OS cells were treated during 24 h with 13 μM TAT, 13 μM TAT-RasGAP317-326 or not treated. The cells were then washed and incubated in culture medium without peptides for the indicated periods of time. Cells were analyzed as in panel (a).
# (§1) (a) RasGAP317-326 without cell-permeation sequences is not able to render cells resistant to trypsin. 300,000 U2OS cells were cultured overnight in 3.5 cm plates and then treated during 8 hours with the indicated peptides (the concentration of each peptide was 13 μM). The cells were then subjected to a trypsinization assay. (b) 2×10^6 HEK293T cells were cultured overnight in 10 cm plates and transfected with empty vector (pcDNA3) or vectors encoding HA-tagged versions of fragment N2 or the 317-326 sequence of RasGAP. One day later, the cells were subjected to a trypsinization test. Results in (a) and (b) correspond to the number of cells per mm2 (mean±95% CI of 3 independent experiments). Some values are shown literally as they were too low to be seen on the graphs.
# 5×10^5 cells were grown overnight and then incubated with peptides or transfected (see the figures for the specific conditions used). The treated cells were washed with phosphate buffered saline (PBS) and then incubated with trypsin-EDTA solution (Sigma; catalog no: T3924; […]) during 5 minutes. The plates were gently hand-rocked 2 and 4 minute after trypsin addition. Detached cells were removed with a PBS wash and the remaining attached cells were dried, incubated in ethanol during 10 minutes, dried again, and finally stained with GIEMSA (Invitrogen) for 45 minutes. Four and six phase contrast pictures were taken (Zeiss Axioplan, 10× objective) for 3.5 cm-plates and 10 cm-plates, respectively. The number of cells per mm2 was then determined.
# [4] = system: U2OS, HeLa, HCT116 and HaCaT; test: Wound-healing experiment; assay type: cell-based; conditions: 13 μM peptide, HCT116, HaCaT (FIG. 2)
# Description: Cells were cultured until confluency and a wound in the cell layer was done with a yellow tip. The cells were then left untreated or incubated 24 hours with 13 μM of TAT or TAT-RasGAP317-326 peptides. Pictures were taken just after wounding (0 hour) and at the indicated times. Results correspond to the width of the wound (mean±95% CI of 4 independent experiments). Asterisks denote significant differences between the control and the other conditions at a given time point (t-test after Bonferroni correction). Bar=100 μm. Cells were grown until confluency and a wound in the cell layer was done with a yellow tip. The cells were washed once with PBS to remove debris and then left untreated or incubated 24 hours and 48 hours with 13 μM of TAT or TAT-RasGAP317-326 peptides (in DMEM+10% FBS). Pictures were taken just after wounding (0 h) and at the indicated times. The wound widths were measured as described earlier (Bulat et al., 2009).
# U2OS cells [5] = test: Proliferation assay; assay type: cell-based; conditions: 13 μM (FIG. 3)
# Description: 30,000 U2OS cells were seeded in 3.5 cm-plates. The cell number in the plates were then determined 24 and 48 hours later as described in FIG. 1, panel (a). The graph represents the number of cells per mm2 (mean±95% CI of 3 independent experiments). No significant difference between the growth curves could be detected (repeated measures ANOVA). 30,000 U2OS cells were seeded in 3.5 cm plates and cultured overnight. The cells were either treated with 13 μM TAT, 13 μM TAT-RasGAP317-326 or left untreated. Pictures were taken after 0 h, 24 h and 72 hours and cells were counted. The number of cells was then adjusted per mm2.
# HEK293T cells = test: Adhesion assay (trypsinization test) after transfection; assay type: cell-based; conditions: HEK293T cells transfected with HA-tagged constructs, one day (FIG. 4B)
# Description: as §1
# 2×10^6 HEK293T cells were cultured overnight in 10 cm-culture plates and transfected with 18 μg of the plasmid of interest and 2 μg of pEGFP-C1 (a green fluorescent protein-encoding plasmid from Clontech) using the calcium-phosphate method (Jordan et al., 1996). Briefly, plasmids were diluted in 450 μl water and mixed with 50 μl CaCl2 2.5M during 30 minutes. […]
# 5×10^5 cells were grown overnight and then incubated with peptides or transfected (see the figures for the specific conditions used). […] The number of cells per mm2 was then determined.
# [6] = 0.160 mg/kg, 28 days after cell injection, ex vivo luminescence
# T1 sequence (P00761 9-231): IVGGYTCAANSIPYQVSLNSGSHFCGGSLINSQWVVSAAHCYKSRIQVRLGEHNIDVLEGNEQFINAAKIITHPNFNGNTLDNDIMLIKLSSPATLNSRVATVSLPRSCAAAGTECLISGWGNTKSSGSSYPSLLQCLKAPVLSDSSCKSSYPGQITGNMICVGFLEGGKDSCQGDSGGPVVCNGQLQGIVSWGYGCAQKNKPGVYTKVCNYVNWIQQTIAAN
molecule,measurement,setting,value
"GRKKRRQRRR [TAT, cell-permeable carrier peptide used as control, reference compound]",actin and focal adhesion localization,U2OS cells [1],did not exhibit any difference compared to untreated cells
"GRKKRRQRRRGGWMWVTNLRTD [TAT-RasGAP317-326, RasGAP-derived peptide conjugated to HIV-TAT48-57 through two glycine residues]",cell survival,[2],"does not, by itself, affect cell survival"
same,primary tumor growth,"4T1-luc2 cells; 0.16 mg per kg on first, third and fifth day of the week during 28 days, nude mice (FIG. 5)",does not affect primary tumor growth
same,mice with metastases in the indicated organs vs total number of mice: Liver,4T1-luc2 cells; [6],3/8
same,mice with metastases in the indicated organs vs total number of mice: Lung,4T1-luc2 cells; [6],2/8*
same,mice with metastases in the indicated organs vs total number of mice: LN,"4T1-luc2 cells; 0.160 mg/kg, 28 days after cell injection, ex vivo luminescence, axillary and brachial lymph nodes",3/8
same,formation of metastases in other organs,"4T1-luc2 cells; 28 days, liver, lymph nodes",apparently no effect
same,lung metastases,"4T1-luc2 cells; 28 days, p=0.024, Fisher's Exact Test",significant decrease in lung metastases
same,trypsin inhibitory effect (ability of trypsin to detach cells),trypsin,did not decrease the ability of trypsin to detach cells
same,ability to increase cell adherence when transcription or translation is blocked,"U2OS cells [3]; 1 μg/ml actinomycin D or 30 μg/ml cycloheximide, data not shown",None of the drugs affected the ability
same,cell adhesion,"U2OS cells [3]; 13 μM peptide, trypsinization 5 minutes, U2OS and other cell lines (FIG. 1)",induces cell adhesion
same,actin and focal adhesion localization,U2OS cells [1],major changes in actin and focal adhesion localization
same,cortical actin stress fibers,U2OS cells [1],strong increase
same,location of focal adhesions,U2OS cells [1],mainly found at the cell's periphery
same,ventral stress fibers,U2OS cells [1],almost completely disappeared
same,ability of the cells to fill wounds (cell migration),[4],blocked the ability of the cells to fill wounds
same,cell population growth,U2OS cells [5],does not modulate cell population growth
"RRRRRRRRRGGWMWVTNLRTD [R9—RasGAP317-326, RasGAP317-326 conjugated to a 9 arginine peptide]",cell adherence (resistance to trypsin),U2OS cells [3]; 13 μM peptide,functions as a cell adherence promoting agent
WMWVTNLRTD (listed as Homo sapiens) [RasGAP317-326],cell adherence (resistance to trypsin),U2OS cells [3]; 13 μM peptide,unable to increase cell adherence
"RasGAP Fragment N2: HA-tagged human RasGAP amino acid 158-455 sequence, expressed from plasmid HA-N2.dn3 (protein, UniProt P20936 158-455, looked up, fragment, HA tag) SLDGPEYEEEEVAIPLTAPPTNQWYHGKLDRTIAEERLRQAGKSGSYLIRESDRRPGSFVLSFLSQMNVVNHFRIIAMCGDYYIGGRRFSSLSDLIGYYSHVSCLLKGEKLLYPVAPPEPVEDRRRVRAILPYTKVPDTDEISFLKGDMFIVHNELEDGWMWVTNLRTDEQGLIVEDLVEEVGREEDPHEGKIWFHGKISKQEAYNLLMTVGQVCSFLVRPSDNTPGDYSLYFRTNENIQRFKICPTPNNQFMMGGRYYNSIGDIIDHYRKEQIVEGYYLKEPVPMQDQEQVLNDTVD",cell adherence after transfection,HEK293T cells,Increases Cell Adherence
